# According to publication PMC1769465, “Toxicity Assays in Nanodrops Combining Bioassay and Morphometric Endpoints” (PLoS ONE, 2007):
# Where two headings read alike, the source gives them in different places.
# Legend:
# HepG2 cells [1] = tested on: HepG2 cells; set-up: method as in PMID 16111842; conditions: read-out: IC50, neutral red quantification, cited from earlier work
# HeLa cells = conditions: cited from earlier work
# [2] = tested on: HepG2 A10/hsp22 stress inducible clone; conditions: for IC50: read-out: IC50 (Cell Number)
# [3] = tested on: HepG2 A10/hsp22 stress inducible clone; experiment: cells; type: cell-based, human
# [4] = tested on: EGFP expressing stress inducible clones; set-up: method as in PMID 16492392; conditions: 6 h toxic induction combined with a 12–18 h recovery period; read-out: IC50 in 96 well format assays; cited from earlier work
# hsp22 promoter = conditions: cited from earlier work
# HepG2 cells [5] = conditions: cited from earlier work
# [6] = tested on: Drosophila melanogaster hsp22 promoter; type: cell-based; conditions: for IC50: read-out: IC50 derived from KS curves, EGFP expression
# HepG2 cells [7] = tested on: HepG2 cells; set-up: method as in PMID 16111842; conditions: read-out: IC50, MTT assay, cited from earlier work
# [8] = tested on: HepG2 A10/hsp22 stress inducible clone; experiment: cells; conditions: Homo sapiens, HepG2, read-out: IC50 (Cell Number)
# [9] = […], linear regression, two independent experiments
# [10] = calculated on Kolmogorov-Smirnov score curves
# [11] = same stress inducible clones, 96-well format
molecule,measurement,setting,value
"[Cl][Cd][Cl] [CdCl2, Cadmium chloride]",IC50,"HepG2 cells [1]; HepG2, 5 h exposure",100 µM
same,IC50,"HepG2 cells [1]; HepG2, 8 h exposure",80 µM
same,IC50,"HepG2 cells [1]; HepG2, 24 h exposure",8 µM
same,CC50,HeLa cells,50 µM
same,doses giving an obvious decrease in cell number,[2],greater than 20 µM
same,IC50,[2]; [9],83 µM
same,concentrations causing a decrease in Shape Index,[3]; HepG2 A10 clone,above 20 µM
same,IC50 for Shape Index,[3]; [9],32 µM
same,IC50,"[3]; […], linear regression, two independent experiments, read-out: IC50 for Cell Area",29 µM
same,IC50,"[3]; […], linear regression, two independent experiments, read-out: IC50 for Cell Roundness",52 µM
same,"IC50 derived from KS curves, Shape Index",[3]; [10],48 µM
same,IC50,"[3]; calculated on Kolmogorov-Smirnov score curves, read-out: IC50 derived from KS curves, Cell Area",25 µM
same,IC50,"[3]; calculated on Kolmogorov-Smirnov score curves, read-out: IC50 derived from KS curves, Roundness",60 µM
same,Cell Area after toxic insult (cell shrinkage),[3]; decrease from around 900 µm^2,around 400 µm^2
same,dose at which increase in Cell Roundness occurred,"[3]; late dose, particularly with cadmium",100 µM
same,IC50,[4],50 µM
same,induction windows,hsp22 promoter; reported,10 to 100 µM
same,concentration over which promoter activity gradually decreased,hsp22 promoter; [11],over 60 µM
same,peak expression of EGFP (concentration),hsp22 promoter; [11],around 50 µM
same,concentration that elicited mild (20–25%) cytotoxicity,"HepG2 cells [5]; HepG2, 24 h exposure",40 µM
same,concentration that elicited minimal (≤5%) cytotoxicity,"HepG2 cells [5]; HepG2, 24 h exposure",15 µM
same,concentration that elicited more severe (approximately 50%) cytotoxicity,"HepG2 cells [5]; HepG2, 24 h exposure",60 µM
same,IC50,"HepG2 cells [5]; read-out: IC50 for cytotoxicity, HepG2, 24 h exposure",60 to 70 µM
same,dose at which EGFP expression could be detected,[6],50 µM
same,dose at which hsp22 promoter activation (EGFP) disappeared,[6],100 µM
same,dose of maximum activation of hsp22 promoter (EGFP expression),[6],around 50 µM
same,IC50,[6]; [10],28 µM
same,IC50,"HepG2 cells [7]; HepG2, 3 h exposure",500 µM
same,IC50,"HepG2 cells [7]; HepG2, 5 h exposure",100 µM
same,IC50,"HepG2 cells [7]; HepG2, 8 h exposure",40 µM
same,IC50,"HepG2 cells [7]; HepG2, 24 h exposure",15 µM
C[n+]1ccc(-c2cc[n+](C)cc2)cc1 [Paraquat],IC50,[8],88 µM
same,doses giving an obvious decrease in cell number,[2]; human,greater than 20 µM
same,IC50,"[3]; Homo sapiens, HepG2, 6 h, […], linear regression, two independent experiments, read-out: IC50 for Cell Area",44 µM
same,IC50 for Shape Index,[3]; [9],29 µM
same,Shape Index effect (in words),[3]; compared with Arsenate and Cadmium,did not induce as significant a decrease of this index
same,Cell Roundness effect (in words),[3]; compared with heavy metals,produced a less significant effect
same,Cell Area after toxic insult (cell shrinkage),[3]; decrease from around 900 µm^2,700 µm^2
same,EGFP expression with hsp22 promoter (in words),"[6]; HepG2 A10 clone, 0.5 µM to 1 mM",did not induce any significant EGFP expression
Sodium arsenate,doses giving an obvious decrease in cell number,[2],greater than 20 µM
same,IC50,[2],85 µM
same,Cell Area after toxic insult (cell shrinkage),[3],around 400 µm^2
same,"IC50 derived from KS curves, Roundness",[3],no significant Roundness effect
same,"IC50 derived from KS curves, Shape Index",[3],32 µM
same,IC50 for Shape Index,[3],24 µM
same,concentrations causing a decrease in Shape Index,[3],above 20 µM
same,dose after which Shape Index distribution was significantly different from control (KS),[3],> 50 µM
same,dose at which Cell Area reached the KS score 0.2 threshold,[3],5 µM
same,dose at which increase in Cell Roundness occurred,[3],100 µM
same,IC50,"[3]; read-out: IC50 derived from KS curves, Cell Area",19 µM
same,IC50,[3]; read-out: IC50 for Cell Area,29 µM
same,IC50,[3]; read-out: IC50 for Cell Roundness,59 µM
same,induction windows,hsp22 promoter,10 to 100 µM
same,IC50,HepG2 cells [5],60 to 70 µM
same,concentration that elicited mild (20–25%) cytotoxicity,HepG2 cells [5],55 µM
same,concentration that elicited minimal (≤5%) cytotoxicity,HepG2 cells [5],15 µM
same,concentration that elicited more severe (approximately 50%) cytotoxicity,HepG2 cells [5],70 µM
same,dose at which EGFP Grey Level reached the KS score 0.2 threshold,[6],10 µM
same,dose at which EGFP expression could be detected,[6],20 µM
same,dose at which hsp22 promoter activation (EGFP) disappeared,[6],100 µM
same,IC50,[6],19 µM
